Test results from PubChem BioAssay (NCI).
Where “and” joins values, the source holds several entries; their conditions need not be identical. Equal values may be shown once.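 Growth conditions: 96-well plates. Treatment: test compound, 48 hours, 5 concentrations. Analysis: linear interpolation between bracketing concentrations; unreached endpoints set to highest concentration. The concentration for 50% growth inhibition is given as GI50. TGI marks complete inhibition of growth.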

Experiments:
Test in all cases: NCI anticancer screen, dose series, 48 h
MOLT-4 leukemia = tested on: MOLT-4 leukemia
SN12C renal = tested on: SN12C renal
LOX IMVI melanoma = tested on: LOX IMVI melanoma
SF-268 CNS = tested on: SF-268 CNS
786-0 renal = tested on: 786-0 renal
CAKI-1 renal = tested on: CAKI-1 renal
U251 CNS = tested on: U251 CNS
SR leukemia = tested on: SR leukemia
COLO 205 colon = tested on: COLO 205 colon
SW-620 colon = tested on: SW-620 colon

SMILES | GI50 (MOLT-4 leukemia) | TGI (MOLT-4 leukemia) | GI50 (SN12C renal) [µM] | TGI (SN12C renal) | GI50 (LOX IMVI melanoma) | TGI (LOX IMVI melanoma) | GI50 (SF-268 CNS) | TGI (SF-268 CNS) | GI50 (786-0 renal) [µM] | TGI (786-0 renal) | GI50 (CAKI-1 renal) | TGI (CAKI-1 renal) | GI50 (U251 CNS) [µM] | TGI (U251 CNS) | GI50 (SR leukemia) | TGI (SR leukemia) | GI50 (COLO 205 colon) | TGI (COLO 205 colon) | GI50 (SW-620 colon) | TGI (SW-620 colon)
O=C1/C(=C\c2coc3ccccc3c2=O)c2ccccc2N1c1c(Cl)cccc1Cl | 2.98 µM | > 100 µM | 3.35 | > 100 µM | 1.52 µM | 8.91 µM | 3.41 µM | > 100 µM | 3.1 | 33.7 µM | 2.45 µM | > 100 µM | 1.45 | 35.6 µM | 1.44 µM | 56.4 µM | 3.82 µM | 36 µM | 5.28 µM | > 100 µM
COc1cc2c3c(n(C)c(=O)c2cc1OC)-c1cc2c(cc1/C3=C\CCCBr)OCO2 | 21.4 µM | > 66.2 µM | > 100 | > 100 µM | 42 µM | > 100 µM | 16.1 µM | > 54.8 µM | 8.5 | > 40.2 µM | 48.1 µM | > 100 µM | 13.2 | > 60.3 µM | 13.3 µM | > 100 µM | 18.8 µM | 55.8 µM | > 100 µM | > 100 µM
CCc1c(Cl)nc(Cl)nc1Cl | – | 9.5 µM | – | 1.39 µM | – | 1.54 µM | – | 2.03 µM | – | 3.71 µM | – | 0.404 µM | – | 0.92 µM | – | > 100 µM | – | 0.284 µM | – | 1.39 µM
O=C1/C(=C/c2ccccc2)CCC/C1=C\c1ccccc1 | 15.1 µM and 11.1 µM | 36.5 µM and 71.1 µM and 70.2 µM | 7.33 | 12.6 µM and 32.8 µM and 34.9 µM | 3.83 µM and 1.52 µM | 8.65 µM and 5.92 µM and 3.64 µM | 6.72 µM and 5.81 µM | 13.3 µM and 29.5 µM and 20.3 µM | 6.62 | 11.9 µM and 25.9 µM and 27.1 µM | 7.03 µM and 17 µM | 13 µM and 46.4 µM and 44.7 µM | 3.33 | 11.5 µM and 14.8 µM and 12.9 µM | 10.8 µM and 3.16 µM | 36.5 µM and > 64.3 µM and 7.58 µM | 6.31 µM and 15.1 µM | 11.5 µM and 32.7 µM and 35.2 µM | 6.37 µM and 3.19 µM | 11.8 µM and 6.4 µM and 11.2 µM
CCOC(=O)C1=C(C)NC(=O)NC1c1coc2cc(C)cc(C)c2c1=O (centres undefined) | – | > 100 µM | – | > 100 µM | – | > 100 µM | – | > 100 µM | – | > 100 µM | – | > 100 µM | – | > 100 µM | – | > 79.8 µM | – | > 100 µM | – | > 100 µM
CC(=O)OC1CCC2(C)C(=CCC3C2CCC2(C)C(C(C)C(=O)O)CCC32)C1 (centres undefined) | – | > 100 µM | – | > 100 µM | – | > 100 µM | – | > 100 µM | – | > 100 µM | – | > 100 µM | – | > 100 µM | – | > 100 µM | – | > 100 µM | – | > 100 µM
COc1cc([C@@H]2c3cc4c(cc3[C@@H](O[C@@H]3O[C@@H]5CO[C@@H](c6cccs6)O[C@H]5[C@H](O)[C@H]3O)[C@H]3COC(=O)[C@H]23)OCO4)cc(OC)c1O | 0.0313 µM | – | 0.166 | 2.73 µM | 0.0969 µM | 2.26 µM | 0.266 µM | 7.2 µM | 0.193 | 1.34 µM | 0.557 µM | 24.2 µM | 0.18 | 6.96 µM | 0.0101 µM | 15 µM | 1.88 µM | 8.94 µM | 0.175 µM | > 46.1 µM
COC(=O)c1ccc([N+](=O)[O-])c(O)c1 | – | > 100 µM | – | > 100 µM | – | > 100 µM | – | > 100 µM | – | > 100 µM | – | > 100 µM | – | > 100 µM | – | > 100 µM | – | > 100 µM | – | > 100 µM
O=C(NNC(=O)c1ccncc1)c1ccncc1 | – | > 100 µM | – | > 100 µM | – | > 100 µM | – | > 100 µM | – | > 100 µM | – | > 100 µM | – | > 100 µM | – | > 100 µM | – | > 100 µM | – | > 100 µM
C[C@H]1CC[C@@H]2[C@@H](C)[C@H]3[C@H](C[C@H]4[C@@H]5CC=C6C[C@@H](O)CC[C@]6(C)[C@H]5C[C@H](O)[C@]34C)N2C1 | – | > 100 µM | – | > 100 µM | – | > 100 µM | – | > 100 µM | – | > 100 µM | – | > 100 µM | – | > 100 µM | – | > 100 µM | – | > 100 µM | – | > 100 µM
CC(C)c1cccc(C(C)C)c1NC(=O)C(=O)C(C(=O)c1ccc2ccccc2c1)C1OC(=O)c2ccccc21 (centres undefined) | – | > 100 µM | – | > 100 µM | – | > 100 µM | – | > 100 µM | – | > 100 µM | – | > 100 µM | – | > 100 µM | – | > 100 µM | – | > 100 µM | – | > 100 µM
O=S1(=O)CS(=O)(=O)OCCCO1 | – | > 100 µM | – | > 100 µM | – | > 100 µM | – | > 100 µM | – | > 100 µM | – | > 100 µM | – | > 100 µM | – | > 100 µM | – | > 100 µM | – | > 100 µM
COc1ccc(C2=C(c3cc(OC)c(OC)c(OC)c3)C(=O)CC2)cc1 | 0.405 µM | > 100 µM | 0.676 | > 100 µM | 0.441 µM | > 100 µM | 0.668 µM | > 33.8 µM | 0.425 | > 100 µM | 0.76 µM | > 100 µM | 0.324 | > 100 µM | 0.0335 µM | > 100 µM | 0.218 µM | 1.17 µM | 0.082 µM | > 100 µM
